Data set [1] is described as follows: Same desulfurative C-C cyclisation as series A (TCEP, Ir photocatalyst, blue light) with N-terminal Cys and C-terminal allylglycine (reversed pentapeptides). The conditions noted are these: the molecule shown is the open-chain precursor; 17-membered ring; 6 M Gdn.HCl, 0.1 M Na2HPO4 pH 7.5-8.0 / MeCN 9:1; 0.5 mM; 25.0 °C.
A short description of data set [2]: C(sp3)-C(sp3) bond formation by visible-light-mediated Cys desulfurisation: alanyl radical adds to terminal alkene of allylglycine (or O-allyl Ser, pentenylGly, acrylamide); TCEP 50 eq (25 mM), (Ir[dF(CF3)ppy]2(dtbpy))PF6 1 mol%, 450 nm blue LED; unprotected peptides. The conditions noted are these: 6 M Gdn.HCl, 0.1 M Na2HPO4 pH 7.5-8.0 / MeCN 9:1, 0.5 mM, 25.0 °C.

Molecules are shown by their SMILES.

As for `C=CC[C@H](NC(=O)[C@H](CCC(=O)O)NC(=O)[C@H](Cc1ccccc1)NC(=O)[C@H](C)NC(=O)[C@H](CS)NC(C)=O)C(N)=O` [Ac-Cys-Ala-Phe-Glu-(allylGly)-NH2], the ring closure, conversion by HPLC in data set [1] is 0%.

As for `C=CC[C@H](NC(=O)[C@H](CCCNC(=N)N)NC(=O)[C@H](Cc1c[nH]c2ccccc12)NC(=O)[C@@H](NC(=O)[C@H](CS)NC(C)=O)[C@@H](C)CC)C(N)=O` [Ac-Cys-Ile-Trp-Arg-(allylGly)-NH2], the ring closure, conversion by HPLC in data set [1] amounted to 7%.

Consider `C=CC[C@H](NC(=O)[C@H](CCSC)NC(=O)[C@H](Cc1ccc(O)cc1)NC(=O)[C@H](CC(C)C)NC(=O)[C@H](CS)NC(C)=O)C(N)=O` [Ac-Cys-Leu-Tyr-Met-(allylGly)-NH2], for which the ring closure, conversion by HPLC in data set [1] turned out to be 21%.

The compound `C=CC[C@H](NC(=O)[C@H](CCCCN)NC(=O)[C@@H]1CCCN1C(=O)[C@@H](NC(=O)[C@H](CS)NC(C)=O)[C@@H](C)O)C(N)=O` [Ac-Cys-Thr-Pro-Lys-(allylGly)-NH2] yielded a ring closure, conversion by HPLC in data set [1] of 0%.

As for `C=CC[C@H](NC(=O)[C@H](CCC(N)=O)NC(=O)[C@H](Cc1c[nH]cn1)NC(=O)[C@@H](NC(=O)[C@H](CS)NC(C)=O)C(C)C)C(N)=O` [Ac-Cys-Val-His-Gln-(allylGly)-NH2], the ring closure, conversion by HPLC in data set [1] was 28%.

In data set [2] (from C=CCCC[C@H](N)C(=O)N[C@@H](C)C(=O)N[C@@H](Cc1ccccc1)C(=O)N[C@@H](C)C(=O)N[C@@H](CS)C(N)=O, 19-membered ring, 1.0 h), `C[C@@H]1NC(=O)[C@H](Cc2ccccc2)NC(=O)[C@H](C)NC(=O)[C@@H](N)CCCCCC[C@@H](C(N)=O)NC1=O` [H-(4-pentenylGly)-Ala-Phe-Ala-Cys-NH2] came in with a ring closure, isolated yield of 32%.

Turning to `C[C@@H]1NC(=O)[C@H](Cc2ccccc2)NC(=O)[C@H](C)NC(=O)[C@@H](N)CCCC[C@@H](C(N)=O)NC1=O` [H-(allylGly)-Ala-Phe-Ala-Cys-NH2], in data set [2] (from C=CC[C@H](N)C(=O)N[C@@H](C)C(=O)N[C@@H](Cc1ccccc1)C(=O)N[C@@H](C)C(=O)N[C@@H](CS)C(N)=O, 17-membered ring, 0.75 h), the ring closure, isolated yield was found to be 79%.

In data set [2] (from C=CC[C@H](N)C(=O)N[C@@H](CCCNC(=N)N)C(=O)N1CCC[C@H]1C(=O)N[C@@H](CCSC)C(=O)N[C@@H](Cc1c[nH]cn1)C(=O)N[C@@H](CS)C(N)=O, 20-membered ring), `CSCC[C@@H]1NC(=O)[C@@H]2CCCN2C(=O)[C@H](CCCNC(=N)N)NC(=O)[C@@H](N)CCCC[C@@H](C(N)=O)NC(=O)[C@H](Cc2c[nH]cn2)NC1=O` [H-(allylGly)-Arg-Pro-Met-His-Cys-NH2] displayed a ring closure, isolated yield of 0%.

On to `NCCCC[C@@H]1NC(=O)[C@H](CC(=O)O)NC(=O)[C@@H](N)CCCC[C@@H](C(N)=O)NC(=O)[C@H](CCC(=O)O)NC(=O)[C@H](Cc2c[nH]cn2)NC(=O)[C@H](CC(N)=O)NC(=O)[C@H](Cc2ccccc2)NC1=O` [H-(allylGly)-Asp-Lys-Phe-Asn-His-Glu-Cys-NH2], for which, in data set [2] (from C=CC[C@H](N)C(=O)N[C@@H](CC(=O)O)C(=O)N[C@@H](CCCCN)C(=O)N[C@@H](Cc1ccccc1)C(=O)N[C@@H](CC(N)=O)C(=O)N[C@@H](Cc1c[nH]cn1)C(=O)N[C@@H](CCC(=O)O)C(=O)N[C@@H](CS)C(N)=O, 26-membered ring), the ring closure, isolated yield turned out to be 70%.

Compound `CC(C)C[C@@H]1NC(=O)[C@H](CC(=O)O)NC(=O)[C@H](CCC(=O)O)NC(=O)[C@@H](N)CCCC[C@@H](C(N)=O)NC(=O)[C@H](CCC(N)=O)NC(=O)[C@H](Cc2ccc(O)cc2)NC(=O)[C@H](Cc2ccccc2)NC1=O` [H-(allylGly)-Glu-Asp-Leu-Phe-Tyr-Gln-Cys-NH2] yielded a ring closure, isolated yield in data set [2] (from C=CC[C@H](N)C(=O)N[C@@H](CCC(=O)O)C(=O)N[C@@H](CC(=O)O)C(=O)N[C@@H](CC(C)C)C(=O)N[C@@H](Cc1ccccc1)C(=O)N[C@@H](Cc1ccc(O)cc1)C(=O)N[C@@H](CCC(N)=O)C(=O)N[C@@H](CS)C(N)=O, 26-membered ring) of 65%.

The compound `CSCC[C@@H]1NC(=O)[C@H](Cc2ccc(O)cc2)NC(=O)[C@H](CC(C)C)NC(=O)[C@@H](N)CCCC[C@@H](C(N)=O)NC1=O` [H-(allylGly)-Leu-Tyr-Met-Cys-NH2] registered a ring closure, isolated yield in data set [2] (from C=CC[C@H](N)C(=O)N[C@@H](CC(C)C)C(=O)N[C@@H](Cc1ccc(O)cc1)C(=O)N[C@@H](CCSC)C(=O)N[C@@H](CS)C(N)=O, 17-membered ring) of 54%.

The compound `CSCC[C@@H]1NC(=O)[C@@H](N)CCCC[C@@H](C(N)=O)NC(=O)[C@H](CCCCN)NC(=O)[C@H](CCC(=O)O)NC(=O)[C@H](CC(C)C)NC(=O)[C@H](C)NC1=O` [H-(allylGly)-Met-Ala-Leu-Glu-Lys-Cys-NH2] returned a ring closure, isolated yield in data set [2] (from C=CC[C@H](N)C(=O)N[C@@H](CCSC)C(=O)N[C@@H](C)C(=O)N[C@@H](CC(C)C)C(=O)N[C@@H](CCC(=O)O)C(=O)N[C@@H](CCCCN)C(=O)N[C@@H](CS)C(N)=O, 23-membered ring) of 44%.

`CSCC[C@@H]1NC(=O)[C@@H](N)CCCC[C@@H](C(N)=O)NC(=O)[C@H](CCCNC(=N)N)NC(=O)[C@H](CC(C)C)NC(=O)[C@H](Cc2c[nH]c3ccccc23)NC(=O)[C@@H]2CCCN2C1=O` [H-(allylGly)-Met-Pro-Trp-Leu-Arg-Cys-NH2]: the ring closure, isolated yield in data set [2] (from C=CC[C@H](N)C(=O)N[C@@H](CCSC)C(=O)N1CCC[C@H]1C(=O)N[C@@H](Cc1c[nH]c2ccccc12)C(=O)N[C@@H](CC(C)C)C(=O)N[C@@H](CCCNC(=N)N)C(=O)N[C@@H](CS)C(N)=O, 23-membered ring) stood at 65%.

On to `CC[C@H](C)[C@@H]1NC(=O)[C@H](Cc2ccc(O)cc2)NC(=O)[C@@H](N)CCCC[C@@H](C(=O)N2CCC[C@H]2C(=O)N[C@@H](CC(C)C)C(=O)NCC(N)=O)NC(=O)[C@H](CC(N)=O)NC(=O)[C@H](CCC(N)=O)NC1=O` [H-(allylGly)-Tyr-Ile-Gln-Asn-Cys-Pro-Leu-Gly-NH2], for which the ring closure, isolated yield in data set [2] (from C=CC[C@H](N)C(=O)N[C@@H](Cc1ccc(O)cc1)C(=O)N[C@H](C(=O)N[C@@H](CCC(N)=O)C(=O)N[C@@H](CC(N)=O)C(=O)N[C@@H](CS)C(=O)N1CCC[C@H]1C(=O)N[C@@H](CC(C)C)C(=O)NCC(N)=O)[C@@H](C)CC, 20-membered ring) was 0%.

Turning to `NC(=O)CC[C@@H]1NC(=O)[C@H](Cc2ccc(O)cc2)NC(=O)[C@H](Cc2ccccc2)NC(=O)[C@@H](NC(=O)[C@@H](N)CC(=O)O)CCCC[C@@H](C(N)=O)NC1=O` [H-Asp-(allylGly)-Phe-Tyr-Gln-Cys-NH2], in data set [2] (from C=CC[C@H](NC(=O)[C@@H](N)CC(=O)O)C(=O)N[C@@H](Cc1ccccc1)C(=O)N[C@@H](Cc1ccc(O)cc1)C(=O)N[C@@H](CCC(N)=O)C(=O)N[C@@H](CS)C(N)=O, 17-membered ring), the ring closure, isolated yield stood at 82%.

Compound `C=CC[C@H](NC(=O)[C@H](CCC(=O)O)NC(=O)[C@H](Cc1ccccc1)NC(=O)[C@H](C)NC(=O)[C@@H](N)CS)C(N)=O` [H-Cys-Ala-Phe-Glu-(allylGly)-NH2] gave a ring closure, conversion by HPLC in data set [1] of 25%.

In data set [1], `C=CC[C@H](NC(=O)[C@H](CCCNC(=N)N)NC(=O)[C@H](Cc1c[nH]c2ccccc12)NC(=O)[C@@H](NC(=O)[C@@H](N)CS)[C@@H](C)CC)C(N)=O` [H-Cys-Ile-Trp-Arg-(allylGly)-NH2] came in with a ring closure, conversion by HPLC of 0%.

Turning to `C=CC[C@H](NC(=O)[C@H](CCSC)NC(=O)[C@H](Cc1ccc(O)cc1)NC(=O)[C@H](CC(C)C)NC(=O)[C@@H](N)CS)C(N)=O` [H-Cys-Leu-Tyr-Met-(allylGly)-NH2], the ring closure, conversion by HPLC in data set [1] amounted to 0%.

`CC[C@H](C)[C@@H]1NC(=O)[C@H](Cc2ccc(O)cc2)NC(=O)[C@@H](N)CCCC[C@@H](C(=O)N2CCC[C@H]2C(=O)N[C@@H](CC(C)C)C(=O)NCC(N)=O)NC(=O)[C@H](CC(N)=O)NC(=O)[C@H](CCC(N)=O)NC1=O` [H-Cys-Tyr-Ile-Gln-Asn-(allylGly)-Pro-Leu-Gly-NH2]: the ring closure, isolated yield in data set [2] (from C=CC[C@H](NC(=O)[C@H](CC(N)=O)NC(=O)[C@H](CCC(N)=O)NC(=O)[C@@H](NC(=O)[C@H](Cc1ccc(O)cc1)NC(=O)[C@@H](N)CS)[C@@H](C)CC)C(=O)N1CCC[C@H]1C(=O)N[C@@H](CC(C)C)C(=O)NCC(N)=O, 20-membered ring) worked out at 52%.

`CC1CC[C@@H](C(N)=O)NC(=O)[C@H](C)NC(=O)[C@H](Cc2ccccc2)NC(=O)[C@H](C)NC(=O)[C@@H](N)COC1` (stereo partly drawn) [H-Ser(O-2-methylallyl)-Ala-Phe-Ala-Cys-NH2] came in with a ring closure, isolated yield in data set [2] (from C=C(C)COC[C@H](N)C(=O)N[C@@H](C)C(=O)N[C@@H](Cc1ccccc1)C(=O)N[C@@H](C)C(=O)N[C@@H](CS)C(N)=O, 19-membered ring, 0.17 h) of 77%.

`C[C@@H]1NC(=O)[C@H](Cc2ccccc2)NC(=O)[C@H](C)NC(=O)[C@@H](N)COCCCC[C@@H](C(N)=O)NC1=O` [H-Ser(OAllyl)-Ala-Phe-Ala-Cys-NH2] had a ring closure, isolated yield in data set [2] (from C=CCOC[C@H](N)C(=O)N[C@@H](C)C(=O)N[C@@H](Cc1ccccc1)C(=O)N[C@@H](C)C(=O)N[C@@H](CS)C(N)=O, 19-membered ring, 1.0 h) of 78%.
